Data taken from the NIST ThermoML archive (doi:10.1007/s10765-008-0549-z).
± gives the expanded uncertainty stated by the source.

Details: Liquid, Hot wire method

COCCOC [1,2-dimethoxyethane]
Details | thermal conductivity [W/m/K]
245.46 K, 104.6 kPa | 0.1648 ± 0.0034
245.69 K, 30045 kPa | 0.1742 ± 0.0035
245.95 K, 9806.6 kPa | 0.1669 ± 0.0034
245.96 K, 30103 kPa | 0.1746 ± 0.0036
246.06 K, 5008.2 kPa | 0.1665 ± 0.0034
246.06 K, 20070 kPa | 0.1711 ± 0.0035
246.24 K, 20007 kPa | 0.1706 ± 0.0035
246.49 K, 105.9 kPa | 0.165 ± 0.0034
246.52 K, 5028.5 kPa | 0.1666 ± 0.0034
246.69 K, 10018 kPa | 0.1683 ± 0.0034
246.75 K, 10005 kPa | 0.1682 ± 0.0034
246.79 K, 5010 kPa | 0.1662 ± 0.0034
247.52 K, 103.3 kPa | 0.1647 ± 0.0034
255.91 K, 20016 kPa | 0.1675 ± 0.0034
256.02 K, 102.5 kPa | 0.1606 ± 0.0033
256.02 K, 30007 kPa | 0.1706 ± 0.0035
256.1 K, 10040 kPa | 0.1643 ± 0.0033
256.21 K, 5070.2 kPa | 0.1623 ± 0.0033
256.75 K, 30014 kPa | 0.1707 ± 0.0035
256.81 K, 20002 kPa | 0.1679 ± 0.0034
256.83 K, 10040 kPa | 0.1642 ± 0.0033
256.9 K, 5065.5 kPa | 0.1625 ± 0.0033
256.95 K, 102.5 kPa | 0.161 ± 0.0033
257.48 K, 5064.5 kPa | 0.1625 ± 0.0033
257.56 K, 20022 kPa | 0.1674 ± 0.0034
257.58 K, 102.3 kPa | 0.1607 ± 0.0033
257.62 K, 10048 kPa | 0.1643 ± 0.0033
257.66 K, 30002 kPa | 0.1708 ± 0.0035
266.15 K, 10003 kPa | 0.1617 ± 0.0033
266.18 K, 5017.9 kPa | 0.1601 ± 0.0033
266.19 K, 30009 kPa | 0.1688 ± 0.0034
266.26 K, 101.3 kPa | 0.158 ± 0.0032
266.26 K, 20003 kPa | 0.1654 ± 0.0034
266.32 K, 10011 kPa | 0.1618 ± 0.0033
266.41 K, 100.9 kPa | 0.158 ± 0.0032
266.58 K, 5037.6 kPa | 0.1598 ± 0.0033
266.87 K, 20013 kPa | 0.165 ± 0.0034
266.95 K, 30000 kPa | 0.1684 ± 0.0034
267.11 K, 30013 kPa | 0.1683 ± 0.0034
267.35 K, 20003 kPa | 0.1653 ± 0.0034
267.37 K, 10021 kPa | 0.1617 ± 0.0033
267.5 K, 101.1 kPa | 0.1578 ± 0.0032
267.84 K, 5027 kPa | 0.1598 ± 0.0033
275.68 K, 10024 kPa | 0.1585 ± 0.0032
275.72 K, 5003.3 kPa | 0.1567 ± 0.0032
276.21 K, 20024 kPa | 0.1624 ± 0.0033
276.34 K, 101.8 kPa | 0.1547 ± 0.0032
276.45 K, 30012 kPa | 0.1657 ± 0.0034
276.49 K, 100.9 kPa | 0.1543 ± 0.0032
276.52 K, 20015 kPa | 0.1623 ± 0.0033
276.94 K, 5006 kPa | 0.1567 ± 0.0032
277.11 K, 30008 kPa | 0.1654 ± 0.0034
277.29 K, 10005 kPa | 0.1584 ± 0.0032
277.31 K, 30012 kPa | 0.1653 ± 0.0034
277.53 K, 20015 kPa | 0.1623 ± 0.0033
277.55 K, 5005.5 kPa | 0.1565 ± 0.0032
277.95 K, 10000 kPa | 0.1585 ± 0.0032
278.62 K, 101.1 kPa | 0.1539 ± 0.0031
285.8 K, 10010 kPa | 0.1551 ± 0.0032
286.18 K, 5012.4 kPa | 0.1531 ± 0.0031
286.23 K, 101.5 kPa | 0.1512 ± 0.0031
286.4 K, 30001 kPa | 0.1626 ± 0.0033
286.51 K, 20013 kPa | 0.159 ± 0.0032
286.67 K, 30009 kPa | 0.1625 ± 0.0033
286.8 K, 20011 kPa | 0.159 ± 0.0032
287.06 K, 101.3 kPa | 0.1509 ± 0.0031
287.07 K, 30006 kPa | 0.1621 ± 0.0033
287.28 K, 10001 kPa | 0.1549 ± 0.0032
287.46 K, 5010.5 kPa | 0.153 ± 0.0031
287.68 K, 20035 kPa | 0.1586 ± 0.0032
288.14 K, 10002 kPa | 0.1545 ± 0.0031
288.62 K, 100.9 kPa | 0.1504 ± 0.0031
288.65 K, 5009.1 kPa | 0.1525 ± 0.0031
294.52 K, 10026 kPa | 0.1516 ± 0.0031
294.53 K, 20008 kPa | 0.1566 ± 0.0032
294.55 K, 30012 kPa | 0.1589 ± 0.0033
294.64 K, 10027 kPa | 0.1527 ± 0.0031
294.68 K, 106.8 kPa | 0.1466 ± 0.003
294.68 K, 20036 kPa | 0.1566 ± 0.0032
294.75 K, 104.2 kPa | 0.1463 ± 0.003
294.83 K, 5021.1 kPa | 0.15 ± 0.0031
294.85 K, 10037 kPa | 0.1514 ± 0.0031
294.89 K, 30004 kPa | 0.1609 ± 0.0033
294.98 K, 5020.1 kPa | 0.1495 ± 0.003
295 K, 30018 kPa | 0.1595 ± 0.0032
295.07 K, 5014 kPa | 0.149 ± 0.003
295.11 K, 20026 kPa | 0.1557 ± 0.0032
295.24 K, 20010 kPa | 0.1569 ± 0.0032
295.28 K, 30016 kPa | 0.1598 ± 0.0033
295.32 K, 30006 kPa | 0.16 ± 0.0033
295.36 K, 101.9 kPa | 0.1467 ± 0.003
295.36 K, 20006 kPa | 0.1558 ± 0.0032
295.37 K, 10024 kPa | 0.1515 ± 0.0031
295.38 K, 104.3 kPa | 0.1474 ± 0.003
295.83 K, 10044 kPa | 0.1522 ± 0.0031
296 K, 5027.1 kPa | 0.1498 ± 0.0031
314.6 K, 104.5 kPa | 0.1394 ± 0.0029
314.65 K, 105.6 kPa | 0.1386 ± 0.0029
314.79 K, 30008 kPa | 0.1522 ± 0.0031
314.83 K, 20003 kPa | 0.1491 ± 0.003
314.84 K, 5010.3 kPa | 0.1415 ± 0.0029
314.87 K, 10003 kPa | 0.1443 ± 0.0029
314.9 K, 107.1 kPa | 0.1402 ± 0.0029
314.95 K, 20016 kPa | 0.1476 ± 0.003
315.06 K, 10017 kPa | 0.144 ± 0.0029
315.14 K, 30010 kPa | 0.1529 ± 0.0031
315.17 K, 10013 kPa | 0.1447 ± 0.0029
315.23 K, 5018.6 kPa | 0.1424 ± 0.0029
315.26 K, 30008 kPa | 0.1519 ± 0.0031
315.27 K, 105.4 kPa | 0.1395 ± 0.0028
315.3 K, 20008 kPa | 0.1484 ± 0.003
315.31 K, 20001 kPa | 0.1483 ± 0.003
315.42 K, 10012 kPa | 0.1445 ± 0.0029
315.46 K, 5010.3 kPa | 0.1419 ± 0.0029
315.51 K, 100.6 kPa | 0.1391 ± 0.0028
334.53 K, 10006 kPa | 0.1361 ± 0.0028
334.58 K, 102.1 kPa | 0.132 ± 0.0027
334.58 K, 5005.9 kPa | 0.1342 ± 0.0027
334.65 K, 5011.8 kPa | 0.1347 ± 0.0027
334.69 K, 90 kPa | 0.132 ± 0.0027
334.76 K, 10004 kPa | 0.1366 ± 0.0028
334.94 K, 10015 kPa | 0.1373 ± 0.0028
334.98 K, 5008.9 kPa | 0.1344 ± 0.0027
335.06 K, 101.6 kPa | 0.1322 ± 0.0027
335.31 K, 10008 kPa | 0.1374 ± 0.0028
335.39 K, 5011.5 kPa | 0.1347 ± 0.0027
335.53 K, 105.6 kPa | 0.1314 ± 0.0027
335.59 K, 10015 kPa | 0.1366 ± 0.0028
335.96 K, 5018 kPa | 0.1343 ± 0.0027
336.14 K, 105.6 kPa | 0.1319 ± 0.0027

Cc1ccccc1 [toluene]
Details | thermal conductivity [W/m/K]
274.65 K | 0.1387 ± 0.0028
275.4 K | 0.1382 ± 0.0028
275.95 K | 0.1384 ± 0.0028
276.31 K | 0.138 ± 0.0028
287.33 K | 0.1345 ± 0.0028
288.72 K | 0.1336 ± 0.0027
289.65 K | 0.1335 ± 0.0027
294.45 K | 0.1318 ± 0.0027
294.69 K | 0.1318 ± 0.0027
295.08 K | 0.1321 ± 0.0027
295.47 K | 0.1314 ± 0.0027
295.79 K | 0.132 ± 0.0027
297.45 K | 0.1318 ± 0.0027
298.6 K | 0.1313 ± 0.0027
300.43 K | 0.1303 ± 0.0027
307.66 K | 0.1287 ± 0.0026
308.62 K | 0.1283 ± 0.0026
310.22 K | 0.1274 ± 0.0026
314.69 K | 0.1261 ± 0.0026
314.74 K | 0.1264 ± 0.0026
315.55 K | 0.1253 ± 0.0026
315.85 K | 0.1254 ± 0.0026
316.7 K | 0.1251 ± 0.0026
317.94 K | 0.1251 ± 0.0026
319.32 K | 0.1245 ± 0.0026
319.96 K | 0.1245 ± 0.0026
327.65 K | 0.1225 ± 0.0025
329.5 K | 0.1214 ± 0.0025
330.77 K | 0.1209 ± 0.0025
338.39 K | 0.1188 ± 0.0024
339.77 K | 0.1181 ± 0.0024
340.62 K | 0.1181 ± 0.0024
355.63 K | 0.114 ± 0.0023
355.95 K | 0.114 ± 0.0023
357.02 K | 0.1137 ± 0.0023
375.26 K | 0.1086 ± 0.0022
375.71 K | 0.1087 ± 0.0022
